Results from patent publication US20250381198A1 (Melt Pharmaceuticals, Inc., priority 2024, published 2025).
Marks after values point to notes of the source that are not given here.

Tested on: subjects undergoing cataract extraction with lens replacement (CELR)
Test: Phase 3: adverse events (safety analysis set)
Type: in vivo, human
Method: The safety of MELT-300 was performed at baseline, in the course of surgery (intraoperatively), postoperatively on Day 1, and on Day 3+1 day post dose of study medication. Safety assessment included monitoring of AEs, vital sign measurements, and physical examinations.
An overview of adverse events (AEs) is provided in TABLE 57 for the safety analysis set. Reported data includes an overall summary of the presence of any AEs, treatment-emergent ocular adverse events (TEAEs), treatment-related TEAEs, TEAE of special interest (TEAESI), serious AEs (SEAs), and treatment-emergent SAEs (TESAE). Categories were not mutually exclusive. Results include the number of subjects, percent of subjects, and number of events in each category, respectively. A summary of treatment-emergence adverse events (TEAEs) by location, system organ class, and preferred term for the safety analysis set is provided in TABLE 58. A summary of treatment-related treatment-emergent adverse events (TRTEAEs) by system organ class, and preferred term for the safety analysis set is provided in TABLE 59. No SAEs (overall), TESAEs, or treatment-related TESAEs were observed. No SAEs resulting in death or discontinuation of the study was observed.

[1] = Location: Non-Ocular, Safety Analysis Set
[2] = Location: Non-Ocular, Safety analysis set
[3] = Location: Ocular, Safety Analysis Set
[4] = Location: Ocular, Safety analysis set

## Cc1ncc2n1-c1ccc(Cl)cc1C(c1ccccc1F)=NC2 [Midazolam, 8-chloro-6-(2-fluorophenyl)-1-methyl-4H-imidazo[1,5-a][1,4]benzodiazepine]
[1]
  TEAE: Amnesia: 0 n
  TEAE: Anxiety: 0 n
  TEAE: Back pain: 0 n
  TEAE: Balance disorder: 0 n
  TEAE: Blood pressure increased: 0 n
  TEAE: Blood pressure systolic increased: 0 n
  TEAE: Bradycardia: 0 n
  TEAE: Cardiac disorders (System Organ Class): 0 n
  TEAE: Cough: 0 n
  TEAE: Dental local anaesthesia: 0 n
  TEAE: Dizziness: 0 n
  TEAE: Fatigue: 0 n
  TEAE: Gastrointestinal disorders (System Organ Class): 0 n
  TEAE: General disorders and administration site conditions (System Organ Class): 0 n
  TEAE: Hiccups: 0 n
  TEAE: Hypertension: 0 n
  TEAE: Hypoaesthesia oral: 0 n
  TEAE: Infections and infestations (System Organ Class): 0 n
  TEAE: Injury, poisoning and procedural complications (System Organ Class): 0 n
  TEAE: Investigations (System Organ Class): 0 n
  TEAE: Lethargy: 0 n
  TEAE: Musculoskeletal and connective tissue disorders (System Organ Class): 0 n
  TEAE: Myalgia: 0 n
  TEAE: Nasal Discomfort: 0 n
  TEAE: Nausea: 0 n
  TEAE: Neck pain: 0 n
  TEAE: Oxygen saturation decreased: 0 n
  TEAE: Post procedural hypotension: 0 n
  TEAE: Procedural nausea: 0 n
  TEAE: Procedural vomiting: 0 n
  TEAE: Product after taste: 0 n
  TEAE: Product issues (System Organ Class): 0 n
  TEAE: Psychiatric disorders (System Organ Class): 0 n
  TEAE: Pyrexia: 0 n
  TEAE: Sinusitis: 0 n
  TEAE: Surgical and medical procedures (System Organ Class): 0 n
  TEAE: Tachycardia: 0 n
  TEAE: Taste disorder: 0 n
  TEAE: Vascular disorders (System Organ Class): 0 n
[2]
  Any AE, events: 9 #
  Any AE, subjects: 7 (7.9) n (%)
  Any Grade 3+ TEAE, events: 0 #
  Any Grade 3+ TEAE, subjects: 0 n (%)
  Any SAE, events: 0 #
  Any SAE, subjects: 0 n (%)
  Any TEAE Resulting in Death, events: 0 #
  Any TEAE Resulting in Death, subjects: 0 n (%)
  Any TEAE Resulting in Study Drug Interruption, events: 0 #
  Any TEAE Resulting in Study Drug Interruption, subjects: 0 n (%)
  Any TEAE Resulting in Study Drug Withdrawal, events: 0 #
  Any TEAE Resulting in Study Drug Withdrawal, subjects: 0 n (%)
  Any TEAE, events: 5 #
  Any TEAE, subjects: 4 (4.5) n (%)
  Any TEAESI, events: 2 #
  Any TEAESI, subjects: 2 (2.2) n (%)
  Any TESAE, events: 0 #
  Any TESAE, subjects: 0 n (%)
  Any Treatment-Related TEAE Resulting in Death, events: 0 #
  Any Treatment-Related TEAE Resulting in Death, subjects: 0 n (%)
  Any Treatment-Related TEAE, events: 3 #
  Any Treatment-Related TEAE, subjects: 2 (2.2) n (%)
  Any Treatment-Related TEAESI, events: 1 #
  Any Treatment-Related TEAESI, subjects: 1 (1.1) n (%)
  Any Treatment-Related TESAE, events: 0 #
  Any Treatment-Related TESAE, subjects: 0 n (%)
  Any Unexpected TEAE, events: 0 #
  Any Unexpected TEAE, subjects: 0 n (%)
  Any Unexpected Treatment-Related TEAE, events: 0 #
  Any Unexpected Treatment-Related TEAE, subjects: 0 n (%)
  TEAESI: Abuse-related AEs, events: 0 #
  TEAESI: Abuse-related AEs, subjects: 0 n (%)
  TEAESI: Cardiovascular AEs, events: 1 #
  TEAESI: Cardiovascular AEs, subjects: 1 (1.1) n (%)
  TEAESI: Ketamine emergence delirium, events: 0 #
  TEAESI: Ketamine emergence delirium, subjects: 0 n (%)
  TEAESI: Neurocognitive AEs, events: 0 #
  TEAESI: Neurocognitive AEs, subjects: 0 n (%)
  TEAESI: Oral/pharyngeal AEs, events: 0 #
  TEAESI: Oral/pharyngeal AEs, subjects: 0 n (%)
  TEAESI: Oversedation requiring the use of flumazenil, events: 0 #
  TEAESI: Oversedation requiring the use of flumazenil, subjects: 0 n (%)
  TEAESI: Respiratory AEs, events: 1 #
  TEAESI: Respiratory AEs, subjects: 1 (1.1) n (%)
[3]
  TEAE: Abnormal sensation in eye: 0 n
  TEAE: Corneal abrasion: 0 n
  TEAE: Corneal oedema: 0 n
  TEAE: Diplopia: 0 n
  TEAE: General disorders and administration site conditions (System Organ Class): 0 n
  TEAE: Glare: 0 n
  TEAE: Injury, poisoning and procedural complications (System Organ Class): 0 n
  TEAE: Installation site pain: 0 n
  TEAE: Lacrimation increased: 0 n
  TEAE: Ocular discomfort: 0 n
  TEAE: Photophobia: 0 n
  TEAE: Photopsia: 0 n
  TEAE: Procedural pain: 0 n
  TEAE: Visual field defect: 0 n
  TEAE: Visual impairment: 0 n
[4]
  Any AE, events: 15 #
  Any AE, subjects: 10 (11.2) n (%)
  Any Grade 3+ TEAE, events: 0 #
  Any Grade 3+ TEAE, subjects: 0 n (%)
  Any Grade 3+ Treatment-Related TEAE, events: 0 #
  Any Grade 3+ Treatment-Related TEAE, subjects: 0 n (%)
  Any SAE, events: 0 #
  Any SAE, subjects: 0 n (%)
  Any TEAE Resulting in Death, events: 0 #
  Any TEAE Resulting in Death, subjects: 0 n (%)
  Any TEAE Resulting in Study Drug Interruption, events: 0 #
  Any TEAE Resulting in Study Drug Interruption, subjects: 0 n (%)
  Any TEAE Resulting in Study Drug Withdrawal, events: 0 #
  Any TEAE Resulting in Study Drug Withdrawal, subjects: 0 n (%)
  Any TEAE, events: 15 #
  Any TEAE, subjects: 10 (11.2) n (%)
  Any TEAESI, events: 0 #
  Any TEAESI, subjects: 2 (2.2) n (%)
  Any TESAE, events: 0 #
  Any TESAE, subjects: 0 n (%)
  Any Treatment-Related TEAE, events: 1 #
  Any Treatment-Related TEAE, subjects: 1 (1.1) n (%)
  Any Treatment-Related TEAESI, events: 0 #
  Any Treatment-Related TEAESI, subjects: 0 n (%)
  Any Treatment-Related TESAE, events: 0 #
  Any Treatment-Related TESAE, subjects: 0 n (%)
  Any Unexpected TEAE, events: 9 #
  Any Unexpected TEAE, subjects: 6 (6.7) n (%)
  Any Unexpected Treatment-Related TEAE, events: 0 #
